Laboratory results from US20240238293A1, “COMBINED PHARMACEUTICAL PREPARATION FOR TREATING A TERMINAL NON-SMALL CELL LUNG CANCER PATIENT WITH BRAIN METASTASIS” (DELTA-FLY PHARMA, INC., priority 2020, published 2024).
“Also recorded” adds a separate entry of the source.

Assays:
[1] = Phase II clinical trial of concurrent low-dose Ubenimex and low-dose Afatinib: adverse effects; format: in vivo, human patients; conditions: within the combination (FIG. 2)
Description: To patients with non-small cell lung cancer having a mutation in the epidermal growth factor receptor (EGFR) gene, 10 mg/day of Ubenimex in a single dose unit (free form) and 20 mg/day of Afatinib (Giotrif®, dimaleate) in a single dose unit were administered in concurrently once a day until no antitumor effects would be exerted. The therapeutic effects and reduction of adverse effects were then inspected. […]

[2] = Afatinib 40 mg/day alone; terminal (stage III to IV) NSCLC patients; 229 patients, phase III; cited from earlier work

Compound | adverse effects of Afatinib at about 20 mg/day, such as diarrhea or rashes ([1]; about 20 mg/day in a single dose unit) | adverse effects, such as diarrhea and rashes [2] | adverse effects of Ubenimex at about 10 mg/day ([1]; about 10 mg/day in a single dose unit)
CN(C)CC=CC(=O)Nc1cc2c(Nc3ccc(F)c(Cl)c3)ncnc2cc1O[C@H]1CCOC1 [Afatinib, N-[4-[(3-chloro-4-fluorophenyl)amino]-7-[[(3S)-tetrahydro-3-furanyl]oxy]-6-quinazolinyl]-4-(dimethylamino)-2-butenamide] | substantially no adverse effects | likely to appear; also recorded: likely to be caused | –
CC(C)C[C@H](NC(=O)[C@@H](O)[C@H](N)Cc1ccccc1)C(=O)O [Ubenimex, (2S)-2-[(2S,3R)-3-amino-2-hydroxy-4-phenylbutanoylamino]-4-methylpentanoic acid] | – | – | substantially no adverse effects
